Measured values reported in patent publication US20260042764A1, “COMPOSITIONS AND METHODS FOR INHIBITION OF KRAS” (TheRas, Inc., priority 2022, published 2026).

Key:
[1] = target: T1, Avi-KRAS WT (1-169) GppNHp/RAF1 RBD-3xFLAG (52-151) (Homo sapiens, UniProt P01116); assay: Raf1-KRAS WT-GppNHP disruption HTRF assay (Biological Example 1); type: binding; details: KRAS WT, GppNHp-loaded; Table 11
T1 construct: Avi-KRAS WT (1-169)
Protocol: (§1) A protein:protein interaction (PPI) Homogeneous Time Resolved Fluorescence (HTRF) assay was used to determine the effectiveness of compounds of the present disclosure in disrupting KRAS protein and effector RAF1 binding.
(§2) The assay buffer included: 50 mM Tris pH 7.5, 100 mM NaCl, 5 mM MgCl2, 0.1% BSA, 0.01% Tween, and 10% DMSO. The bead buffer included: 50 mM Tris pH 7.5, and 0.01% Tween 20. Assay volume of 20 μL was used in a 384 well plate-low volume format.
(§3) The HTRF assay employed the following protocol:
(§4) Protein mix was prepared in assay buffer, and dispensed on plates, 10 μL per well, then incubated for 1 h at room temperature, with 700 rpm shaking, Reagents mix was prepared and dispensed on plates, 10 μL per well, then incubated for 1 h at room temperature, with 700 rpm shaking.
(§5) Data was reported as percentage of activity, with DMSO as 100%. Data was plotted and analyzed using Prism 8.

[2] = target: T2, Avi-KRAS G12D (1-169) GppNHp/RAF1 RBD-3xFLAG (52-151) (Homo sapiens, UniProt P01116, G12D); assay: Raf1-KRAS G12D-GppNHP disruption HTRF assay (Biological Example 1); type: binding; details: KRAS G12D, GppNHp-loaded; Table 11
T2 construct: Avi-KRAS G12D (1-169)
T2 sequence (P01116 1-169 isoform P01116-2 G12D): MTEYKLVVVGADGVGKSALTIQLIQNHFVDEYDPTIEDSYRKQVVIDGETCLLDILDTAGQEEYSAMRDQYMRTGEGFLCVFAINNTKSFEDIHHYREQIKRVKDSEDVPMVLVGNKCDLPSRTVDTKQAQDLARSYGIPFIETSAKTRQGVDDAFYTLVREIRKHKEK
Protocol: as §1, §2, §3, §4, §5

[3] = target: T3, Avi-KRAS G12R (1-169) GppNHp/RAF1 RBD-3xFLAG (52-151) (Homo sapiens, UniProt P01116, G12R); assay: Raf1-KRAS G12R-GppNHP disruption HTRF assay (Biological Example 1); type: binding; details: KRAS G12R, GppNHp-loaded; Table 11
T3 construct: Avi-KRAS G12R (1-169)
T3 sequence (P01116 1-169 isoform P01116-2 G12R): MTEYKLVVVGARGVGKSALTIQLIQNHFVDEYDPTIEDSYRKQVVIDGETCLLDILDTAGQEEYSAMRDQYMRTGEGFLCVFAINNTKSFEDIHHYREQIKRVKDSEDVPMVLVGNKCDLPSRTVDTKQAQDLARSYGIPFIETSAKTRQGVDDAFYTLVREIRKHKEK
Protocol: as §1, §2, §3, §4, §5

[4] = tested on: GP2d cells (KRAS G12D); assay: Cell-based pERK HTRF assay in GP2d cell (Biological Example 2); details: GP2d (KRAS G12D) cells, pERK HTRF
Protocol: A pERK assay (Perkin Elmer) was used to determine the effectiveness of compounds in disrupting KRAS G12D protein/effector signaling in cells.
On Day 1, cells (GP2d) were seeded into 96-well plates at 3×10^4 cells/well in 80 μL complete growth media (DMEM, 10% FBS).
On Day 2, cells were treated with compounds at 0.25% DMSO. The source plate was created with compounds diluted in media at 5-fold the final assay concentration. The compounds were run in a 9-point concentration curve starting at 1 μM or in a 9-point concentration curve starting at 100 nM, with a half-log dilution between concentrations. Twenty μL was transferred onto the cell plates (final volume in wells was 100 μL). Plates were harvested after 60 min incubation by aspirating media and adding kit-supplied 1x supplemented lysis buffer to all wells (50 μL per well). Plates were then placed on a plate shaker and incubated at 850 rpm for an additional 30 min.
Antibody mixture solution was prepared by diluting aliquoted d2 and Eu Cryptate antibodies 1:20 in kit supplied detection buffer, and mixing the diluted antibodies solutions (1:1 v:v).
Samples were homogenized by pipetting up and down and then transferred (16 μL of cell lysates) from the 96-well cell culture plate to two wells of the HTRF 384-well detection plate containing the antibody solution. Plates were centrifuged (524 g for 1 min) and allowed to incubate between 4 and 24 h at room temperature. Maximum signal is reached after 4 h incubation time and remains stable over a period of 24 hours. Therefore, readings can be made between 4 and 24 h of incubation. Plates were centrifuged again (524 g for Imin), then analyzed on the EnVision plate reader using the following settings: Excitation 320 nm, Bandwidth 75 nm; Emission 615 nm, Bandwidth 85 nm; Gain 100%; Flashes 100; Lag 60 μs.

[5] = target: T4, Avi-KRAS G12V (1-169) GppNHp/RAF1 RBD-3xFLAG (52-151) (Homo sapiens, UniProt P01116, G12V); assay: Raf1-KRAS G12V-GppNHP disruption HTRF assay (Biological Example 1); type: binding; details: KRAS G12V, GppNHp-loaded; Table 11
T4 construct: Avi-KRAS G12V (1-169)
T4 sequence (P01116 1-169 isoform P01116-2 G12V): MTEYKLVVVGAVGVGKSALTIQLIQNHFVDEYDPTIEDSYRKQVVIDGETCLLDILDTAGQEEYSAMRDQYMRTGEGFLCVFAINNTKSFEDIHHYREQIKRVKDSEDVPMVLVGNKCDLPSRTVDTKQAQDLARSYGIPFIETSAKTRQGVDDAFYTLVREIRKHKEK
Protocol: as §1, §2, §3, §4, §5

T1 sequence (P01116 1-169 isoform P01116-2): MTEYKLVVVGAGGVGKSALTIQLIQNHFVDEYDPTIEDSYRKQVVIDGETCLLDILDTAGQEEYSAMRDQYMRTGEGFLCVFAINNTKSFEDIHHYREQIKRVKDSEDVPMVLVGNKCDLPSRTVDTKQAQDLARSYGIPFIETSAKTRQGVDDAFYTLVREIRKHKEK

Row | Structure (SMILES) | IC50 [1] [µM] | IC50 [2] [µM] | IC50 [3] [µM] | IC50 ([4]; GP2d) [µM] | IC50 [5] [µM] | IC50 [4] [µM]
1 | N#Cc1c(N)sc2c(F)ccc(-c3c(C(F)(F)F)cc4c(N5CCN(C(=O)CO)CC5)nc(OC[C@@]56CCCN5C[C@H](F)C6)nc4c3F)c12 [Compound 101] | 0.1 to 1 | 0.1 to 1 | 0.1 to 1 | < 0.1 | 1 to 10 | 
2 | C[C@@H](CO)N(C)c1nc(OC[C@@]23CCCN2C[C@H](F)C3)nc2c(F)c(-c3ccc(F)c4sc(N)c(C#N)c34)c(C(F)(F)F)cc12 [Compound 77] | 0.1 to 1 | < 0.1 | 0.1 to 1 | < 0.1 | 0.1 to 1 | 
3 | CN(CC1(CO)CC1)c1nc(OC[C@@]23CCCN2C[C@H](F)C3)nc2c(F)c(-c3ccc(F)c4sc(N)c(C#N)c34)c(C(F)(F)F)cc12 [Compound 83] | 0.1 to 1 | 0.1 to 1 | 0.1 to 1 | < 0.1 | 0.1 to 1 | 
4 | CO[C@H]1C[C@@H](N(C)c2nc(OC[C@@]34CCCN3C[C@H](F)C4)nc3c(F)c(-c4ccc(F)c5sc(N)c(C#N)c45)c(C(F)(F)F)cc23)C1 [Compound 27] | 0.1 to 1 | 0.1 to 1 | 0.1 to 1 | < 0.1 | 1 to 10 | 
5 | N#Cc1c(N)sc2c(F)ccc(-c3c(C(F)(F)F)cc4c(N5CC[C@H](O)C5)nc(OC[C@@]56CCCN5C[C@H](F)C6)nc4c3F)c12 [Compound 125] | 0.1 to 1 | 0.1 to 1 | 0.1 to 1 | < 0.1 | 0.1 to 1 | 
6 | CS(=O)(=O)N1CCN(c2nc(OC[C@@]34CCCN3C[C@H](F)C4)nc3c(F)c(-c4ccc(F)c5sc(N)c(C#N)c45)c(C(F)(F)F)cc23)CC1 [Compound 96] | 1 to 10 | 1 to 10 | 1 to 10 | < 0.1 | 1 to 10 | 
7 | C[C@H]1COCCN1c1nc(OC[C@@]23CCCN2C[C@H](F)C3)nc2c(F)c(-c3ccc(F)c4sc(N)c(C#N)c34)c(C(F)(F)F)cc12 [Compound 135] | 0.1 to 1 | < 0.1 | 0.1 to 1 | < 0.1 | 0.1 to 1 | 
8 | CN(c1nc(OC[C@@]23CCCN2C[C@H](F)C3)nc2cc(-c3ccc(F)c4sc(N)c(C#N)c34)c(C#N)cc12)[C@H]1C[C@@H](O)C1 [Compound 29] | 1 to 10 | 1 to 10 | 1 to 10 | 0.1 to 1 | 1 to 10 | 
9 | CN(c1nc(OC[C@@]23CCCN2C[C@H](F)C3)nc2c(F)c(-c3ccc(F)c4sc(N)c(C#N)c34)c(C(F)(F)F)cc12)[C@H]1CCC[C@@H]1CO [Compound 86] | 1 to 10 | 0.1 to 1 | 0.1 to 1 | < 0.1 | 1 to 10 | 
10 | CN(c1nc(OC[C@@]23CCCN2C[C@H](F)C3)nc2c(F)c(-c3ccc(F)c4sc(N)c(C#N)c34)c(C(F)(F)F)cc12)[C@H]1CCN(S(C)(=O)=O)C1 [Compound 119] | 0.1 to 1 | 1 to 10 | 1 to 10 | < 0.1 | 1 to 10 | 
11 | CN(c1nc(OC[C@@H]2CC3(CC3)CN2C)nc2c(F)c(-c3ccc(F)c4sc(N)c(C#N)c34)c(C(F)(F)F)cc12)C1CC(O)C1 (some centres unmarked) [Compound 41] | 0.1 to 1 | 0.1 to 1 | 0.1 to 1 | < 0.1 | 0.1 to 1 | 
12 | N#Cc1c(N)sc2c(F)ccc(-c3c(C(F)(F)F)cc4c(N5CCOCC5)nc(OC[C@@]56CCCN5C[C@H](F)C6)nc4c3F)c12 [Compound 90] | 0.1 to 1 | 0.1 to 1 | 0.1 to 1 | < 0.1 | 0.1 to 1 | 
13 | CCC(=O)N1CC[C@@H](N(C)c2nc(OC[C@@]34CCCN3C[C@H](F)C4)nc3c(F)c(-c4ccc(F)c5sc(N)c(C#N)c45)c(C(F)(F)F)cc23)C1 [Compound 113] | 0.1 to 1 | 0.1 to 1 | 0.1 to 1 | < 0.1 | 0.1 to 1 | 
14 | C[C@H](O)CN(C)c1nc(OC[C@@]23CCCN2C[C@H](F)C3)nc2c(F)c(-c3ccc(F)c4sc(N)c(C#N)c34)c(C(F)(F)F)cc12 [Compound 72] | 0.1 to 1 | < 0.1 | 0.1 to 1 | < 0.1 | 0.1 to 1 | 
15 | N#CC[C@@H]1CN(c2nc(OC[C@@]34CCCN3C[C@H](F)C4)nc3c(F)c(-c4ccc(F)c5sc(N)c(C#N)c45)c(C(F)(F)F)cc23)CCO1 [Compound 136] | 0.1 to 1 | 0.1 to 1 | 0.1 to 1 | < 0.1 | 1 to 10 | 

The next lines start with the values.

Row | IC50 [1] [µM] | IC50 [2] [µM] | IC50 [3] [µM] | IC50 ([4]; GP2d) [µM] | IC50 [5] [µM] | IC50 [4] [µM] | Structure (SMILES)
16 | 0.1 to 1 | 0.1 to 1 | 0.1 to 1 | < 0.1 | 0.1 to 1 |  | N#Cc1c(N)sc2c(F)ccc(-c3c(C(F)(F)F)cc4c(N5CCC(F)CC5)nc(OC[C@@]56CCCN5C[C@H](F)C6)nc4c3F)c12 [Compound 151]
17 | 0.1 to 1 | 0.1 to 1 | 0.1 to 1 | < 0.1 | 1 to 10 |  | C[C@@H]1CN(c2nc(OC[C@@]34CCCN3C[C@H](F)C4)nc3c(F)c(-c4ccc(F)c5sc(N)c(C#N)c45)c(C(F)(F)F)cc23)C[C@@H](C)O1 [Compound 144]
18 | 1 to 10 | 0.1 to 1 | 0.1 to 1 |  | 1 to 10 | < 0.1 | CCN(CCO)c1nc(OC[C@@H]2C[C@@H](OC)CN2C)nc2c(F)c(-c3ccc(F)c4sc(N)c(C#N)c34)c(C(F)(F)F)cc12 [Compound 178]
19 | 0.1 to 1 | 0.1 to 1 | 0.1 to 1 | < 0.1 | 0.1 to 1 |  | CCN(CCO)c1nc(OC[C@@H]2CC3(CC3)CN2C)nc2c(F)c(-c3ccc(F)c4sc(N)c(C#N)c34)c(C(F)(F)F)cc12 [Compound 180]
20 | 0.1 to 1 | 0.1 to 1 | 0.1 to 1 | < 0.1 | 0.1 to 1 |  | CCN(c1nc(OC[C@@]23CCCN2C[C@H](F)C3)nc2c(F)c(-c3ccc(F)c4sc(N)c(C#N)c34)c(C(F)(F)F)cc12)[C@@H]1CCN(C(C)=O)[C@@H]1C [Compound 189]
21 | 0.1 to 1 | 0.1 to 1 | 0.1 to 1 | < 0.1 | 0.1 to 1 |  | CN(CC(F)F)c1nc(OC[C@@]23CCCN2C[C@H](F)C3)nc2c(F)c(-c3ccc(F)c4sc(N)c(C#N)c34)c(C(F)(F)F)cc12 [Compound 164]
22 | 0.1 to 1 | 0.1 to 1 | 0.1 to 1 | < 0.1 | 1 to 10 |  | C[C@@H]1CN(c2nc(OC[C@@]34CCCN3C[C@H](F)C4)nc3c(F)c(-c4ccc(F)c5sc(N)c(C#N)c45)c(C(F)(F)F)cc23)CCO1 [Compound 141]
23 | 0.1 to 1 | < 0.1 | 0.1 to 1 | < 0.1 | 0.1 to 1 |  | CCN(CCO)c1nc(OCC23CCCN2CCC3)nc2c(F)c(-c3ccc(F)c4sc(N)c(C#N)c34)c(C(F)(F)F)cc12 [Compound 176]
24 | 0.1 to 1 | 0.1 to 1 | 0.1 to 1 | < 0.1 | 0.1 to 1 |  | N#Cc1c(N)sc2c(F)ccc(-c3c(C(F)(F)F)cc4c(N(CCO)C5CC5)nc(OC[C@@]56CCCN5C[C@H](F)C6)nc4c3F)c12 [Compound 171]
25 | 0.1 to 1 | 0.1 to 1 | 0.1 to 1 | < 0.1 | 1 to 10 |  | N#Cc1c(N)sc2c(F)ccc(-c3c(C(F)(F)F)cc4c(N5CCC(F)(F)C5)nc(OC[C@@]56CCCN5C[C@H](F)C6)nc4c3F)c12 [Compound 159]
